Test results from the supplement of paper PMC12819154, “High-throughput peptide-centric local stability assay extends protein–ligand identification to membrane proteins, tissues and bacteria” (Nature Structural & Molecular Biology, 2025).

How the values were obtained:
Assay in all cases: pEC50 of peptide local stability change
UniProt P11868 = settings: peptide sequence: HIAGHAASLR; direction: stabilized; replicate design: treated separately
Experimental: (§1)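 Dose-response HT-PELSA: desalted E. coli lysate treated separately per replicate with ATP (10 uM to 10 mM, 7 doses) for 30 min at 25 C, then a 4 min trypsin pulse at 22 C. Peptide ratio vs control was fitted with a 4-parameter log-logistic model (R2 > 0.9 in at least 3 replicates, CV of pEC50 <= 0.25); value is the mean pEC50 across replicates for stabilized or destabilized peptides.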

UniProt P37617 = settings: peptide sequence: VTQVAFDKTGTLTVGKPR; direction: stabilized; replicate design: treated separately
Experimental: as §1

UniProt P08192 = settings: peptide sequence: ASGLEVSENAIR; direction: stabilized; replicate design: treated separately
Experimental: as §1

UniProt P00363 = settings: peptide sequence: LAGEQATER; direction: stabilized; replicate design: treated separately
Experimental: as §1

UniProt P00959 = settings: peptide sequence: LKENGFIK; direction: stabilized; replicate design: treated separately
Experimental: as §1

UniProt P00582 = settings: peptide sequence: LYLPDIK; direction: stabilized; replicate design: treated separately
Experimental: as §1

UniProt P76422 = settings: peptide sequence: GGHLDDEQSPDWLFTR; direction: stabilized; replicate design: treated separately
Experimental: as §1

UniProt Q46802 = settings: peptide sequence: GAFTGASANGK; direction: stabilized; replicate design: treated separately
Experimental: as §1

UniProt P0A8F8 = settings: peptide sequence: VLVTTLTKR; direction: stabilized; replicate design: treated separately
Experimental: as §1

UniProt P06612 = settings: peptide sequence: DLPTSGSAAKK; direction: stabilized; replicate design: treated separately
Experimental: as §1

UniProt P39177 = settings: peptide sequence: NPSISTHLLGSNASSVIR; direction: stabilized; replicate design: treated separately
Experimental: as §1

UniProt P42593 = settings: peptide sequence: TTGWIHR; direction: stabilized; replicate design: treated separately
Experimental: as §1

UniProt P36566 = settings: peptide sequence: TLSPDYPR; direction: stabilized; replicate design: treated separately
Experimental: as §1

UniProt P0AES0 = settings: peptide sequence: GDESLVIKK; direction: stabilized; replicate design: treated separately
Experimental: as §1

UniProt P21599 = settings: peptide sequence: VLEVQGMK; direction: stabilized; replicate design: treated separately
Experimental: as §1

UniProt P43672 = settings: peptide sequence: LMLGQLQADSGR; direction: stabilized; replicate design: treated separately
Experimental: as §1

UniProt P07395 = settings: peptide sequence: EISRFPANRR; direction: stabilized; replicate design: treated separately
Experimental: as §1

UniProt P75821 = settings: peptide sequence: SAKEPPLTHYGVSK; direction: stabilized; replicate design: treated separately
Experimental: as §1

UniProt P0AEC3 = settings: peptide sequence: DSHGGKPATGTGIGLAVSR; direction: stabilized; replicate design: treated separately
Experimental: as §1

UniProt P27833 = settings: peptide sequence: SALINFLK; direction: stabilized; replicate design: treated separately
Experimental: as §1

UniProt P45395 = settings: peptide sequence: VNDIMHTGDEIPHVKK; direction: stabilized; replicate design: treated separately
Experimental: as §1

UniProt P21693 = settings: peptide sequence: DSLQHAPHIIVATPGR; direction: stabilized; replicate design: treated separately
Experimental: as §1

UniProt P20083 = settings: peptide sequence: RDGQVYNIAFENGEK; direction: stabilized; replicate design: treated separately
Experimental: as §1

UniProt P24230 = settings: peptide sequence: LVQGDVGSGK; direction: stabilized; replicate design: treated separately
Experimental: as §1

UniProt P37744 = settings: peptide sequence: LSVAMMGR; direction: stabilized; replicate design: treated separately
Experimental: as §1

UniProt P40719 = settings: peptide sequence: RFTSDAAHELR; direction: stabilized; replicate design: treated separately
Experimental: as §1

UniProt P07862 = settings: peptide sequence: AWTTLGCK; direction: stabilized; replicate design: treated separately
Experimental: as §1

UniProt P0C0L2 = settings: peptide sequence: GQAHWEGDIKR; direction: stabilized; replicate design: treated separately
Experimental: as §1

UniProt P31663 = settings: peptide sequence: NGYLTAEQR; direction: stabilized; replicate design: treated separately
Experimental: as §1

UniProt P76192 = settings: peptide sequence: VLPAEEYAEIR; direction: stabilized; replicate design: treated separately
Experimental: as §1

UniProt P31060 = settings: peptide sequence: QSQFSHITR; direction: stabilized; replicate design: treated separately
Experimental: as §1

Sequence of UniProt P0AES0 (P0AES0 whole entry): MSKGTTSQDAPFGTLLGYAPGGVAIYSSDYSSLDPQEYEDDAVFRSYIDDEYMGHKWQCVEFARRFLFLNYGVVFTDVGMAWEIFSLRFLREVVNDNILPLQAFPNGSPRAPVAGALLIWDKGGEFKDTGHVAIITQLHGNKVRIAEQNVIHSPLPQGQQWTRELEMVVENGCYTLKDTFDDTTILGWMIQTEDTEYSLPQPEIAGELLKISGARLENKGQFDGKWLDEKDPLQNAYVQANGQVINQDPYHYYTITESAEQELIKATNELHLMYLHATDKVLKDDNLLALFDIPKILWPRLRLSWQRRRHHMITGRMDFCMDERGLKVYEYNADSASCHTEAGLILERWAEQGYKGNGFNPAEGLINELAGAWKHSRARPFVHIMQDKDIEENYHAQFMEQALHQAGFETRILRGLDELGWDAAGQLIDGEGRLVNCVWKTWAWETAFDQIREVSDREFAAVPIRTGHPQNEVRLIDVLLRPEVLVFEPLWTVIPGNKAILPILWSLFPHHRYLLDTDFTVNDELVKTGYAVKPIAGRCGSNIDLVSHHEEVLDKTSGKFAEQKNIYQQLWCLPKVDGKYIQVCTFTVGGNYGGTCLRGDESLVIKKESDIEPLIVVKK
Sequence of UniProt P36566 (P36566 whole entry): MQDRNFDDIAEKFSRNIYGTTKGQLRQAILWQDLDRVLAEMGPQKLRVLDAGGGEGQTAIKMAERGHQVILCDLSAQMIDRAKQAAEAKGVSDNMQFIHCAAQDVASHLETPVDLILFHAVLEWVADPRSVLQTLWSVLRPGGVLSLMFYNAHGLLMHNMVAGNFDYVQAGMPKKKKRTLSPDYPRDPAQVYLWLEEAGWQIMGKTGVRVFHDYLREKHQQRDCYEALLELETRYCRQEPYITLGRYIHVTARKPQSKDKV
Sequence of UniProt P00582 (P00582 whole entry): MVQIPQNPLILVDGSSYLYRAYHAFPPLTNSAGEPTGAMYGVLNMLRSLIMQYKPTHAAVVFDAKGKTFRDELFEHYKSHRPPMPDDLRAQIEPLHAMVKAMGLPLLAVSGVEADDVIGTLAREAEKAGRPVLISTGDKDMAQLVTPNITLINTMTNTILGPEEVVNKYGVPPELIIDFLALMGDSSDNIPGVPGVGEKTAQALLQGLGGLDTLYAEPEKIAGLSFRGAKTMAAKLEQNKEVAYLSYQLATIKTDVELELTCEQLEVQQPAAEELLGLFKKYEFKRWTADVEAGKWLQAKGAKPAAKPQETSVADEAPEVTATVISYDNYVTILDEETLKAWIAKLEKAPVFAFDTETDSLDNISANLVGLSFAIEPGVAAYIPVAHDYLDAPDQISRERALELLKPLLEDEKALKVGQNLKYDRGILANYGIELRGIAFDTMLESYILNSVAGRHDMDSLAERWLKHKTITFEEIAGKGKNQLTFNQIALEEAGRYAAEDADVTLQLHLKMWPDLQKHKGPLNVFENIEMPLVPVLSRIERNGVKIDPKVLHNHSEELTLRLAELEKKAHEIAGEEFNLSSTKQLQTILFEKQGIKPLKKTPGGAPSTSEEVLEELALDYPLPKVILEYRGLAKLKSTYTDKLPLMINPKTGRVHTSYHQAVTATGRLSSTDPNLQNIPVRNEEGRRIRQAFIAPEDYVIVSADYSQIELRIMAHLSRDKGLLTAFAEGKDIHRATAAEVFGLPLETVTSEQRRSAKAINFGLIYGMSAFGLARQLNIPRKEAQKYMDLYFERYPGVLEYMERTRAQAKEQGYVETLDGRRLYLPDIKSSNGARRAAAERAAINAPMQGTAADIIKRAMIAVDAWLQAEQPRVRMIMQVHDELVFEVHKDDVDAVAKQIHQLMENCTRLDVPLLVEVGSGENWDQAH
Sequence of UniProt P00363 (P00363 whole entry): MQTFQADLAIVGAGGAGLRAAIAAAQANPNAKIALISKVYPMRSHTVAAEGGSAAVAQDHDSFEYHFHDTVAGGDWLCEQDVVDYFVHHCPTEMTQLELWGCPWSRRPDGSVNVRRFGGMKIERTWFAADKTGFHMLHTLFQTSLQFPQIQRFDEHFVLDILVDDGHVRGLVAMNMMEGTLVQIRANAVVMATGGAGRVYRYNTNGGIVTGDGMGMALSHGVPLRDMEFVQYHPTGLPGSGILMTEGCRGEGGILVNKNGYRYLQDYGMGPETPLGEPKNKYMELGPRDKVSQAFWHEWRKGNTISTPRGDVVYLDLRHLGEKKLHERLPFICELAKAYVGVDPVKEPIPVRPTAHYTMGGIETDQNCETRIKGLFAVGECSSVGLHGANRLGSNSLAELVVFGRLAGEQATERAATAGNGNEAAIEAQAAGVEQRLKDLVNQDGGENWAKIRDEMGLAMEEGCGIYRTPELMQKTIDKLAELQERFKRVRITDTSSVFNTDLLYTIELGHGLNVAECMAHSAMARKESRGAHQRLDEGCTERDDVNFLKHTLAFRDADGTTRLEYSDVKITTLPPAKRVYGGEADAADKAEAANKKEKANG
Sequence of UniProt P21599 (P21599 whole entry): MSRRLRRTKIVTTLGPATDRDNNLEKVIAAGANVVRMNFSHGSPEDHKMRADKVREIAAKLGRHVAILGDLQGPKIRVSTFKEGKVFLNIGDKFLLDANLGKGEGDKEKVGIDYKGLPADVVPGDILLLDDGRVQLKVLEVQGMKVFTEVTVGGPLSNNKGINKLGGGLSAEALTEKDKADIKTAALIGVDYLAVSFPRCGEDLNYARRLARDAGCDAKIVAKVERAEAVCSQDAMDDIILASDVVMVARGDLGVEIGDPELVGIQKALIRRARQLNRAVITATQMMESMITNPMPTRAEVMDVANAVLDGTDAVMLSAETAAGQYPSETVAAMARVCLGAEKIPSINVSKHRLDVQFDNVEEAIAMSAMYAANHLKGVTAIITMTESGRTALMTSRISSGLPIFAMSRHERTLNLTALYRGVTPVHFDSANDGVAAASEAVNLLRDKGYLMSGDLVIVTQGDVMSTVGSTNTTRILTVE
Sequence of UniProt P0A8F8 (P0A8F8 whole entry): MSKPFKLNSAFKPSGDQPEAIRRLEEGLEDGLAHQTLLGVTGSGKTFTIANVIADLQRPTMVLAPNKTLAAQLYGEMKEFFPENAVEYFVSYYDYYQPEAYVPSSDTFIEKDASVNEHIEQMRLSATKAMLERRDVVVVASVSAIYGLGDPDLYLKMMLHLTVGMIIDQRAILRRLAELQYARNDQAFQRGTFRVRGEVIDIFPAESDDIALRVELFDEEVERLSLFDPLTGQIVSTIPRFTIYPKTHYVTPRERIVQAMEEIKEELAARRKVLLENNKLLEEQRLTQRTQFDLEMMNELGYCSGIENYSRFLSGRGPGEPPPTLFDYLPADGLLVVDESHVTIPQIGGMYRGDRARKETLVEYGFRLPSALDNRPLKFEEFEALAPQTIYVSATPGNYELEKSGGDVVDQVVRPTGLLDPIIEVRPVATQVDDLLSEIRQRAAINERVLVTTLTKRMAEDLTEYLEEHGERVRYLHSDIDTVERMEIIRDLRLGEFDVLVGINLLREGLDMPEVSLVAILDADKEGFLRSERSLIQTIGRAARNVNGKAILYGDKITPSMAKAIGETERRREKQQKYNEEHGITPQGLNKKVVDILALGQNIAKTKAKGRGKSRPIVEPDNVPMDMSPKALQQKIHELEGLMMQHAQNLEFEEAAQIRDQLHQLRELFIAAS
Sequence of UniProt P45395 (P45395 whole entry): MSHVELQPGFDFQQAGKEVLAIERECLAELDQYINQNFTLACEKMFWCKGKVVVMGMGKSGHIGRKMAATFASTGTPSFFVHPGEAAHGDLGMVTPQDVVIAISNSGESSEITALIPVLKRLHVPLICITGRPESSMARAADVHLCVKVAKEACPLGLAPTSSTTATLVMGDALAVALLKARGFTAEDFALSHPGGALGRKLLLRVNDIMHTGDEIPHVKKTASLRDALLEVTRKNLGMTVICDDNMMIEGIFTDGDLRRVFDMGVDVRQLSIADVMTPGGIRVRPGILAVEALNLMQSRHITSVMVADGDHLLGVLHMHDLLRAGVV
Sequence of UniProt P11868 (P11868 whole entry): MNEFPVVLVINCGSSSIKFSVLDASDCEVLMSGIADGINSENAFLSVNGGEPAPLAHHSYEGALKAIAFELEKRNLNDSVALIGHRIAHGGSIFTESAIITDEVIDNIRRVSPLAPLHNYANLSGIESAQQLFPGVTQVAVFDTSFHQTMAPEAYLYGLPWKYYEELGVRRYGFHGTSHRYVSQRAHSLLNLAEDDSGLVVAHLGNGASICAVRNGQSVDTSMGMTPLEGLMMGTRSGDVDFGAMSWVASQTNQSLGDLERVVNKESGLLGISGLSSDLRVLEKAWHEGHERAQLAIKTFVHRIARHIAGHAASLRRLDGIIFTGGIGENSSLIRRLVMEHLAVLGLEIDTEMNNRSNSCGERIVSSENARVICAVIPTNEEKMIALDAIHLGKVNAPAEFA
Sequence of UniProt P40719 (P40719 whole entry): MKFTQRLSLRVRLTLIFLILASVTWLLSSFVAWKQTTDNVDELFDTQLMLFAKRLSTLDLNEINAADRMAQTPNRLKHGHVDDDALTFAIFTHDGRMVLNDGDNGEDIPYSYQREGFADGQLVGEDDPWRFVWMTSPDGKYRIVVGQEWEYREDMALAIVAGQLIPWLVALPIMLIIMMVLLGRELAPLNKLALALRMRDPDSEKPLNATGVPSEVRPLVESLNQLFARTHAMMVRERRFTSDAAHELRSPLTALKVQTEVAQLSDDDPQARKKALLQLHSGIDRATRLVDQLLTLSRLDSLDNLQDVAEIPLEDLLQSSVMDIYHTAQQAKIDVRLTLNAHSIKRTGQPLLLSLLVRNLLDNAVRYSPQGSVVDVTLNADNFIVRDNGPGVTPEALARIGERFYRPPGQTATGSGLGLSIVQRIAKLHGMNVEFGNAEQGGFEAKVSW
Sequence of UniProt P39177 (P39177 whole entry): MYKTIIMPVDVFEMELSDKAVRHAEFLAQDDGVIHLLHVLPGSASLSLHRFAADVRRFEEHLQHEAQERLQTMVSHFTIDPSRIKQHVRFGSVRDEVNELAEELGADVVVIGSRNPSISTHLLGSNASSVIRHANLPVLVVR

Nc1ncnc2c1ncn2[C@@H]1O[C@H](COP(=O)(O)OP(=O)(O)OP(=O)(O)O)[C@@H](O)[C@H]1O [adenosine 5'-triphosphate]
Settings	pEC50 of peptide local stability change
UniProt P0A8F8	2.14
UniProt P0AEC3	2.99
UniProt P0AES0	3.95
UniProt P0C0L2	3.96
UniProt P00363	2.48
UniProt P00582	3.5
UniProt P00959	2.99
UniProt P06612	2.16
UniProt P07395	3.77
UniProt P07862	3.66
UniProt P08192	2.7
UniProt P11868	3.41
UniProt P20083	3.38
UniProt P21599	2.4
UniProt P21693	3.65
UniProt P24230	2.78
UniProt P27833	2.89
UniProt P31060	2.89
UniProt P31663	4.25
UniProt P36566	2.46
UniProt P37617	3.12
UniProt P37744	3.22
UniProt P39177	3.26
UniProt P40719	3.59
UniProt P42593	2.95
UniProt P43672	3.81
UniProt P45395	3.32
UniProt P75821	2.62
UniProt P76192	3.75
UniProt P76422	3.76
UniProt Q46802	3.29
